Measurements as given in paper PMC5290327, “SC83288 is a clinical development candidate for the treatment of severe malaria” (Nature Communications, 2017).

Tests used:
CYP2C19 = CYP2C19 (Homo sapiens, UniProt P33261); experiment: CYP inhibition, human liver microsomes; conditions: 10 µM
P. falciparum strain 3D7 = experiment: Growth inhibition assay; format: cell-based; conditions: Plasmodium falciparum
d2 (DOP) (h) = molecular target: T1, d2 (DOP) (h) (Homo sapiens, UniProt P41143); experiment: Radioligand binding
T1 construct: Cerep

5-HT3 (h) = molecular target: T2, 5-HT3 (h) (Homo sapiens, UniProt P46098); experiment: Radioligand binding
T2 construct: Cerep (contract screening)

[1] = In vitro metabolism in liver microsomes; conditions: mouse liver microsomes, 10 μM
A1 (h) = molecular target: T3, A1 (h) (Homo sapiens, UniProt P30542); experiment: Radioligand binding
T3 construct: Cerep (contract study)
T3 sequence (P30542 whole entry): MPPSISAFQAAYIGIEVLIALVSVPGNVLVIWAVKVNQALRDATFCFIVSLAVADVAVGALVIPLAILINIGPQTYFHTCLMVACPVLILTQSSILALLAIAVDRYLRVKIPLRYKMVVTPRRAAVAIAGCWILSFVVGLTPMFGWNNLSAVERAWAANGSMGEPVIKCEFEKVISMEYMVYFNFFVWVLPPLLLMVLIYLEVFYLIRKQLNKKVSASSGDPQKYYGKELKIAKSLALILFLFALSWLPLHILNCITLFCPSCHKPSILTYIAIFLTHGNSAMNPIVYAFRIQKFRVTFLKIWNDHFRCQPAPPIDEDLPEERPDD

A2A (h) = molecular target: T4, A2A (h) (Homo sapiens, UniProt P29274); experiment: Radioligand binding
T4 construct: Cerep (contract study)
T4 sequence (P29274 whole entry): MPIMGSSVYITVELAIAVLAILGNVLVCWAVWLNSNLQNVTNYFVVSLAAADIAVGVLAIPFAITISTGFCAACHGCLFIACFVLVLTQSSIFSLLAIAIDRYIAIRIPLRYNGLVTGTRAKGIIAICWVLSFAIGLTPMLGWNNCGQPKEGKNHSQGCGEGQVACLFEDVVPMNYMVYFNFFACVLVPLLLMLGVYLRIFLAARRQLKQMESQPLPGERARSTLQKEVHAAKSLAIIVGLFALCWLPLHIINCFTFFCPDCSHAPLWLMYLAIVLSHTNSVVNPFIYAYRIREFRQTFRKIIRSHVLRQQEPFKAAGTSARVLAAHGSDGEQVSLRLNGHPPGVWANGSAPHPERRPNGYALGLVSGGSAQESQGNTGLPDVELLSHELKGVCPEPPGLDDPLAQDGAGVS

AT1 (h) = molecular target: T5, AT1 (h) (Homo sapiens, UniProt P30556); experiment: Radioligand binding
T5 construct: Cerep (contract study)
T5 sequence (P30556 whole entry): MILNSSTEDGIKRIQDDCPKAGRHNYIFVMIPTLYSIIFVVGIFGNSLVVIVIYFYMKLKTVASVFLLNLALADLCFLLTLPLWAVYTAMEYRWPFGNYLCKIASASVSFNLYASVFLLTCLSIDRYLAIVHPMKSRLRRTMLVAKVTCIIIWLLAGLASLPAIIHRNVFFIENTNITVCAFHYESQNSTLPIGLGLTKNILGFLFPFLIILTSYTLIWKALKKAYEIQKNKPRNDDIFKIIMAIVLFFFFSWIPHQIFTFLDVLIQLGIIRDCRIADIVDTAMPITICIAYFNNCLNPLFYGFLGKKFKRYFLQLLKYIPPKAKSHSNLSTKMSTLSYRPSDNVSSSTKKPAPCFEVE

b2 (h) = molecular target: T6, b2 (h) (Homo sapiens, UniProt P30411); format: binding
T6 construct: Cerep (contract study)
T6 sequence (P30411 whole entry): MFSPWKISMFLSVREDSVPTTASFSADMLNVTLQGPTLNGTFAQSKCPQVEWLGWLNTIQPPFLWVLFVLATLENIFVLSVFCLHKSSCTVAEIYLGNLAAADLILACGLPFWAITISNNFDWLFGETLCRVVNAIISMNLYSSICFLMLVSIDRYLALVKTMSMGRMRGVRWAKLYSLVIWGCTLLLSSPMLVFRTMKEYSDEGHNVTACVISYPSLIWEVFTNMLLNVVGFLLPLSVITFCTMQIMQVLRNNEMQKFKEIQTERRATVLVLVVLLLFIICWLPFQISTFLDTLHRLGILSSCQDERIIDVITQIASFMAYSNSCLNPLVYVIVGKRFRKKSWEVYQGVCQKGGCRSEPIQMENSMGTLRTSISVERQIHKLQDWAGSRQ

CYP2A6 = CYP2A6 (Homo sapiens, UniProt P11509); experiment: CYP inhibition, human liver microsomes; conditions: CYP2A6, coumarin to 7-OH-coumarin, 10 µM
Chain of CYP2A6 (P11509 whole entry): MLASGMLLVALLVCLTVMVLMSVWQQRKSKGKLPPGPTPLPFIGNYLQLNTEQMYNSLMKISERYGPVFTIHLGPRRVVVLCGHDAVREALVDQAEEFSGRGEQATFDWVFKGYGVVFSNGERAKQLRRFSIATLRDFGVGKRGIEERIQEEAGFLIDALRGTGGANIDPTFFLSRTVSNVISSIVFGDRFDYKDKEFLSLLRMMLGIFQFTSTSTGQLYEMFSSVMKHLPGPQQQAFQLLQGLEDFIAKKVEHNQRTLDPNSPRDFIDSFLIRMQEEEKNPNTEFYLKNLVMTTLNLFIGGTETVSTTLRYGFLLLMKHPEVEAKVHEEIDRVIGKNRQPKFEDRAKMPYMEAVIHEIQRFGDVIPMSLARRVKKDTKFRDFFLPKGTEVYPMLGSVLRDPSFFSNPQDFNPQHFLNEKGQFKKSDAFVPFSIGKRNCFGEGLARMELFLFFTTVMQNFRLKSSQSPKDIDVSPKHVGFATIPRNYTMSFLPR

TP (h) (TXA2/PGH2) = molecular target: T7, TP (h) (TXA2/PGH2) (Homo sapiens, UniProt P21731); experiment: Radioligand binding
T7 construct: Cerep
T7 sequence (P21731 1-343): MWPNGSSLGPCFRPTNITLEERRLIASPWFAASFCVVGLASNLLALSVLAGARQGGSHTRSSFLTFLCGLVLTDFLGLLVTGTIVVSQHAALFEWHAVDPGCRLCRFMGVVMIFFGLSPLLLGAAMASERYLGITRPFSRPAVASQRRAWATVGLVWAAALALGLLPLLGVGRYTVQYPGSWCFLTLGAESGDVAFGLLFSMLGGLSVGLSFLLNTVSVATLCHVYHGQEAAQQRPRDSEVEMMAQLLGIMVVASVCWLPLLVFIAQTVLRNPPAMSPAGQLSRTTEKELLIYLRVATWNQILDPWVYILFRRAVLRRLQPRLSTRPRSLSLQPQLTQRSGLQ

k (KOP) = molecular target: T8, k (KOP) (Rattus norvegicus, UniProt P34975); experiment: Radioligand binding
T8 construct: Cerep
T8 sequence (P34975 whole entry): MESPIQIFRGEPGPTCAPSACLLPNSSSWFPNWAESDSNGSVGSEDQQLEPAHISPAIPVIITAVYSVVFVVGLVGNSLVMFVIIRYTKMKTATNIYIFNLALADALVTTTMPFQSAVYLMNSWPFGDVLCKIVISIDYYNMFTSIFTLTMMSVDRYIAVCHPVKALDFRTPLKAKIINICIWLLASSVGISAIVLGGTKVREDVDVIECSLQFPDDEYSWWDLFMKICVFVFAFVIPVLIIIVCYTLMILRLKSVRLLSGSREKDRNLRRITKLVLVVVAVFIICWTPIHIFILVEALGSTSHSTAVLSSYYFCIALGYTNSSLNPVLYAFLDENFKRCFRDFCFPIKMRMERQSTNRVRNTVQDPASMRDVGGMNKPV

CCR1 (h) = molecular target: T9, CCR1 (h) (Homo sapiens, UniProt P32246); experiment: Radioligand binding
T9 construct: Cerep
T9 sequence (P32246 1-355): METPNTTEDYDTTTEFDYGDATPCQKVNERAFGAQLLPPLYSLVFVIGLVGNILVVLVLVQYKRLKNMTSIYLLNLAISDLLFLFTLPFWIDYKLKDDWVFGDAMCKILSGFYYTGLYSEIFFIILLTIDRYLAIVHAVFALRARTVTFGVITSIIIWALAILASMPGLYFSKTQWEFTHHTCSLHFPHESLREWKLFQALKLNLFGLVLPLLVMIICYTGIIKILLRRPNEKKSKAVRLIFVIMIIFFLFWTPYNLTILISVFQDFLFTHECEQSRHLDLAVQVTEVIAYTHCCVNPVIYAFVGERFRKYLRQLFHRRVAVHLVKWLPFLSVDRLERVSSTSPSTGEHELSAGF

BZD (central) = experiment: Radioligand binding
[2] = In vitro micronucleus assay; conditions: 60 μM
HepG2 cells = experiment: Cytotoxicity; conditions: 50 μM
P. falciparum strain D10 = experiment: Growth inhibition assay; format: cell-based; conditions: Plasmodium falciparum
GAL2 (h) = molecular target: T10, GAL2 (h) (Homo sapiens, UniProt O43603); experiment: Radioligand binding
T10 construct: Cerep
T10 sequence (O43603 whole entry): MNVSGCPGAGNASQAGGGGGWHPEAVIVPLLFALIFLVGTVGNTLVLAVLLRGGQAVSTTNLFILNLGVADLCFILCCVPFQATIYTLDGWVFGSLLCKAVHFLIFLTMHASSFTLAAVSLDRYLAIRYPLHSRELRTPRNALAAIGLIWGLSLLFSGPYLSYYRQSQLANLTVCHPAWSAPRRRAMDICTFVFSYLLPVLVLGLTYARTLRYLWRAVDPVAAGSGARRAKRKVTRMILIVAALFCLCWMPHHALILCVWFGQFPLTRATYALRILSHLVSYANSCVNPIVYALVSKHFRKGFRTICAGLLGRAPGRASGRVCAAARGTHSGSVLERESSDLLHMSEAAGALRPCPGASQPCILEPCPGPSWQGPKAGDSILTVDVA

CYP2C8 = CYP2C8 (Homo sapiens, UniProt P10632); experiment: CYP inhibition, human liver microsomes; conditions: CYP2C8, amodiaquine to Desethylamodiaquine, 10 µM
Chain of CYP2C8 (P10632 whole entry): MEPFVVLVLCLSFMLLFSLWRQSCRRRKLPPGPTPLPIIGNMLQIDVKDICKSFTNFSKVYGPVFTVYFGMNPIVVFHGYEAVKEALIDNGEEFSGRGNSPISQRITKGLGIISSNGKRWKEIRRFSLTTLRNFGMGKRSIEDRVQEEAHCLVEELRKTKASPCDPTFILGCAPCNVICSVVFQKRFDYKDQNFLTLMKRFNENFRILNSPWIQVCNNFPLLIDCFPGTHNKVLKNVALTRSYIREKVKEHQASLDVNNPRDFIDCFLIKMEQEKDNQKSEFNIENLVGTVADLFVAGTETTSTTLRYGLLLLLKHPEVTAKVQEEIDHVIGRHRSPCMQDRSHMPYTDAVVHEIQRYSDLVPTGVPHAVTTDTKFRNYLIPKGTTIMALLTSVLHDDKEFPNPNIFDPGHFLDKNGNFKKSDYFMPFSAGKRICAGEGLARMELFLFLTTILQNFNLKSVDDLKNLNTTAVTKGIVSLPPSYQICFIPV

CYP3A4 = CYP3A4 (Homo sapiens, UniProt P08684); experiment: CYP inhibition, human liver microsomes; conditions: 10 µM
Chain of CYP3A4 (P08684 whole entry): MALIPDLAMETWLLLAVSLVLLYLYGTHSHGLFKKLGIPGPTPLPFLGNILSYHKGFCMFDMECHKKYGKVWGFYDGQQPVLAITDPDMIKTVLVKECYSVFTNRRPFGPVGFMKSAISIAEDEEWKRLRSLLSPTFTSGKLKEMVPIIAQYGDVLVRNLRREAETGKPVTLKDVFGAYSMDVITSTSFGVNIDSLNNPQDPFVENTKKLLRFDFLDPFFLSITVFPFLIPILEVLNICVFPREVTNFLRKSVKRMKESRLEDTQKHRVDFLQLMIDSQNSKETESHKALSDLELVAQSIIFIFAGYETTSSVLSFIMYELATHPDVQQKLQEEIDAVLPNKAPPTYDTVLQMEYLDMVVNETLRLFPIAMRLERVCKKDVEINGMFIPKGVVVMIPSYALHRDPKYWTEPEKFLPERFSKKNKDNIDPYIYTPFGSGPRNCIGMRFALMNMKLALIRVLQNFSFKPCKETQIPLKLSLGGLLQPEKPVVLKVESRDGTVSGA

[3] = test system: P. falciparum strain FCR3; experiment: Growth inhibition assay; format: cell-based; conditions: Plasmodium falciparum
CYP2B6 = CYP2B6 (Homo sapiens, UniProt P20813); experiment: CYP inhibition, human liver microsomes; conditions: CYP2B6, bupropion to OH-bupropion, 10 µM
[4] = test system: Ca2+ channel (L, verapamil site); experiment: Radioligand binding
Protocol: (§1) The study was carried out by Cerep (Celle l'Evescault, France). An in vitro pharmacological profiling panel was designed to detect potential high-risk clinical adverse drug reactions. The panel comprised of 54 targets.
(§2) The specific ligand binding to the receptors was defined as the difference between the total binding and the non-specific binding determined in the presence of an excess of unlabelled ligand. Results were expressed as a per cent of control specific binding and as a per cent inhibition of control specific obtained in the presence of the test compounds. Results showing an inhibition (or stimulation) >50% were considered to represent significant effects of the test compounds. […] The IC50 values were determined by non-linear regression analysis of the competition curves generated with mean replicate values using Hill equation curve fitting. The inhibition constants (Ki) were calculated using the Cheng Prusoff equation.

a1 (non-selective) = experiment: Radioligand binding
Protocol: as §1, §2

sst (non-selective) = experiment: Radioligand binding
Protocol: as §1, §2

a2 (non-selective) = experiment: Radioligand binding
Protocol: as §1, §2

5-HT2B (h) = molecular target: T11, 5-HT2B (h) (Homo sapiens, UniProt P41595); experiment: Radioligand binding
T11 construct: Cerep (contract screening)
T11 sequence (P41595 whole entry): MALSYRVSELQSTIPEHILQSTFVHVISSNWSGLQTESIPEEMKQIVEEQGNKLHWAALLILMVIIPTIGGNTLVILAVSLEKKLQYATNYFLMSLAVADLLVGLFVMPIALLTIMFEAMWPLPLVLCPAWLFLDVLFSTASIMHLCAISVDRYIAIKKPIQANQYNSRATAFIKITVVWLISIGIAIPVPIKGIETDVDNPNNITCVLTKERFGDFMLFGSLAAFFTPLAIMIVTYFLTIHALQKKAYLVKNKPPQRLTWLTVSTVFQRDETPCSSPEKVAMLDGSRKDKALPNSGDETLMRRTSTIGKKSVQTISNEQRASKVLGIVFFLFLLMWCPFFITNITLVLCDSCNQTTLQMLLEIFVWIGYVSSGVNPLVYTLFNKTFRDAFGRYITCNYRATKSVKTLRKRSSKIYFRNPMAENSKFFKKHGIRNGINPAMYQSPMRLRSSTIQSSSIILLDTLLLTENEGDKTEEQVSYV
Protocol: as §1, §2

[5] = test system: P. falciparum strain NF54; experiment: Growth inhibition assay; format: cell-based; conditions: Plasmodium falciparum
[6] = CYP2C19a, omeprazole to 5-OH-omeprazole
[7] = CYP2C19b, omeprazole to desmethylomeprazole
[8] = CYP3A4a, midazolam to 1'-OH-midazolam
[9] = CYP3A4b, testosterone to 6β-OH-testosterone
[10] = CYP3A4c, omeprazole to omeprazole sulphone
[11] = CYP3A4d, omeprazole to 3-OH-omeprazole

Chain of CYP2C19 (P33261 whole entry): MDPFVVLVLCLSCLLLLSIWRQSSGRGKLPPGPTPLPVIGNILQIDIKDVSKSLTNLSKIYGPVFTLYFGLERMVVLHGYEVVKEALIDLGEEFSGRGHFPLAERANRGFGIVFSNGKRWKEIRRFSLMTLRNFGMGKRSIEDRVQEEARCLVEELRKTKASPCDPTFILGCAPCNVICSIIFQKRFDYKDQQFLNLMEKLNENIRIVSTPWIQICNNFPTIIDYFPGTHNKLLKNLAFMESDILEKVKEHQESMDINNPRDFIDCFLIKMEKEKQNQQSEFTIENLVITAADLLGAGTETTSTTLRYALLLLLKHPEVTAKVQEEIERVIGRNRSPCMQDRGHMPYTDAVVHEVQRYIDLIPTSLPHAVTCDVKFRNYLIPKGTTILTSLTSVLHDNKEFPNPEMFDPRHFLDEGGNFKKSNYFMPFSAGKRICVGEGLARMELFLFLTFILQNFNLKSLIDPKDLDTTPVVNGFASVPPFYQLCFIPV

| Compound | Remaining enzyme activity (CYP2C19; [6]) [%] | Remaining enzyme activity (CYP2C19; [7]) [%] | IC50 (P. falciparum strain 3D7) [nM] | Inhibition of control specific binding (d2 (DOP) (h)) [%] | Inhibition of control specific binding (5-HT3 (h)) [%] | remaining after 60 min of incubation [1] [%] | Inhibition of control specific binding (A1 (h)) [%] | Inhibition of control specific binding (A2A (h)) [%] | Inhibition of control specific binding (AT1 (h)) [%] | Inhibition of control specific binding (b2 (h)) [%] | Remaining enzyme activity (CYP2A6) [%] | Inhibition of control specific binding (TP (h) (TXA2/PGH2)) [%] | Inhibition of control specific binding (k (KOP)) [%] | Inhibition of control specific binding (CCR1 (h)) [%] | Inhibition of control specific binding (BZD (central)) [%] | mutagenic or clastogenic activity, in vitro micronucleus assay [2] | in vitro propagation / cytotoxicity (HepG2 cells) | IC50 (P. falciparum strain D10) [nM] | Inhibition of control specific binding (GAL2 (h)) [%] | Remaining enzyme activity (CYP2C8) [%] | further results |
| --- | --- | --- | --- | --- | --- | --- | --- | --- | --- | --- | --- | --- | --- | --- | --- | --- | --- | --- | --- | --- | --- |
| CCCCN1CCN(C(=N)c2cccc(NC(=O)Nc3ccc(S(=O)(=O)NCc4ccc(S(N)(=O)=O)cc4)cc3)c2)CC1 [SC81458, 4-(3-(3-((4-butylpiperazin-1-yl)(imino)methyl)phenyl)ureido)-N-(4-sulfamoylbenzyl) benzenesulfonamide] | 87 | 89 | 13 ± 1 | 10 | 1 | 54 | 7 | 5 | 11 | 7 | 98 | -10 | 43 | -13 | 16 | no signs | did not affect | 9 ± 4 | -15 | 95 | Remaining enzyme activity (CYP3A4; [8]): 74%; Remaining enzyme activity (CYP3A4; [9]): 77%; Remaining enzyme activity (CYP3A4; [10]): 66%; Remaining enzyme activity (CYP3A4; [11]): 98%; IC50 [3]: 13 ± 8 nM; Remaining enzyme activity (CYP2B6): 87%; Inhibition of control specific binding [4]: 17%; Inhibition of control specific binding (a1 (non-selective)): 21%; Inhibition of control specific binding (sst (non-selective)): -2%; Inhibition of control specific binding (a2 (non-selective)): 21%; Inhibition of control specific binding (5-HT2B (h)): 37%; IC50 [5]: 0.4 ± 0.05 nM |
| COC(=O)N1CCN(C(=N)c2cccc(NC(=O)Nc3ccc(S(=O)(=O)NCc4ccc(S(N)(=O)=O)cc4)cc3)c2)CC1 [SC83288, methyl 4-(imino(3-(3-(4-(N-(4-sulfamoylbenzyl)sulfamoyl)phenyl)ureido)phenyl)methyl) piperazine-1-carboxylate] | 104 | 96 | 8 ± 2 | 1 | 17 | 96 | 8 | 13 | 6 | -4 | 101 | -5 | 36 | -2 | 70 | no signs | did not affect | 5 ± 1 | 4 | 89 | Remaining enzyme activity (CYP3A4; [8]): 92%; Remaining enzyme activity (CYP3A4; [9]): 88%; Remaining enzyme activity (CYP3A4; [10]): 87%; Remaining enzyme activity (CYP3A4; [11]): 92%; IC50 [3]: 6 ± 1 nM; Remaining enzyme activity (CYP2B6): 95%; Inhibition of control specific binding [4]: 14%; Inhibition of control specific binding (a1 (non-selective)): 9%; Inhibition of control specific binding (sst (non-selective)): 4%; Inhibition of control specific binding (a2 (non-selective)): 14%; Inhibition of control specific binding (5-HT2B (h)): 17%; IC50 [5]: 2 ± 1 nM |
